Assay results from patent US9108921B2, “Therapeutic compounds and compositions” (AGIOS PHARMACEUTICALS, INC, priority 2014, dated 2015).

What was measured:
Assay type in all cases: biochemical
PKR R510Q = PKR R510Q (Homo sapiens, UniProt P30613, R510Q); assay: PKR Mutant Assay, AC50 against PKR R510Q; conditions: mutant PKR R510Q enzyme
Procedure: (§1) • PKR or PKR mutant enzyme solution was diluted in assay buffer. • 2 μL of test compound was added into wells first, and then 180 μL reaction mix was added. • Reactions mixture with test compound was assembled except for ADP, and plates were stored for 60 minutes at room temperature. • 20 uL ADP was added to start reaction at room temperature and reaction progress was measured as changes in absorbance at 340 nm wavelength at room temperature.
(§2) Test Compound Preparation: • Test compound stock was made at 100× concentration in 100% DMSO (10 mM) • 1 to 3 dilutions were made for 11 points (i.e. 50 μl of first concentration added to 100 μl 100% DMSO to yield 3.33 mM, 50 μl of this added to 100 μl DMSO to yield 1.11 mM, and so forth) • 1 to 100 dilution into assay (2 μl in 200 μl) yielded starting concentration of 100 μM, decreasing 3 fold for 11 points. Assay Buffer: 100 mM KCl, 50 mM Tris 7.5, 5 mM MgCl2, 1 mM DTT, 0.03% BSA Reaction Mixture: PKR mutant enzyme: 80-400 ng/well; ADP: 0.22-1.65 mM; PEP: 0.1-0.5 mM; NADH: 180 uM; LDH: 0.5 units (Sigma#59023); DTT: 1 mM; BSA: 0.03%.

PKR R532W = PKR R532W (Homo sapiens, UniProt P30613, R532W); assay: PKR Mutant Assay, AC50 against PKR R532W; conditions: mutant PKR R532W enzyme
Sequence of PKR R532W (P30613 whole entry R532W): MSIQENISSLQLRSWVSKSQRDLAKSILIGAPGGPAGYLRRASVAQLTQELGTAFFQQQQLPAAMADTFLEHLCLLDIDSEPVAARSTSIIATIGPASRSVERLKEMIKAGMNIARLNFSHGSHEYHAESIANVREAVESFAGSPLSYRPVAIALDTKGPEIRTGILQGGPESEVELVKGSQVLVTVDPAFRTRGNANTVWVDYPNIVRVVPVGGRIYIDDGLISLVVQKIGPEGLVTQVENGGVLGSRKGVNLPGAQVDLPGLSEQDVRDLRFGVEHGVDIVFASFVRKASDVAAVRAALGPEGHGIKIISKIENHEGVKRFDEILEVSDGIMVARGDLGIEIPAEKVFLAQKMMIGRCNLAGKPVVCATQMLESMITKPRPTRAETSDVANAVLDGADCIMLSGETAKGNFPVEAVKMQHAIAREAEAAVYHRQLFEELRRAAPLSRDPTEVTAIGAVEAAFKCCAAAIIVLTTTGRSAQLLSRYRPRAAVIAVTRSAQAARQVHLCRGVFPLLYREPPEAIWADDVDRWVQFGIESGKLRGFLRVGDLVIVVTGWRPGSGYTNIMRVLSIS
Procedure: as §1, §2

PKR WT = PKR WT (Homo sapiens, UniProt P30613); assay: PKR WT enzymatic AC50 assay; conditions: wild type PKR
Sequence of PKR WT (P30613 whole entry): as the sequence (P30613 whole entry R532W) above, with W532R counted along it
Procedure: as §1, §2

Sequence of PKR R510Q (P30613 whole entry R510Q): as the sequence (P30613 whole entry R532W) above, with R510Q, W532R counted along it

SMILES	AC50 (PKR R510Q)	AC50 (PKR R532W)	AC50 (PKR WT)
CC1(CC2(O)CCN(C(=O)c3ccc(NS(=O)(=O)c4cccc5scnc45)cc3)CC2)CC1 [Compound 132, N-(4-(4-hydroxy-4-((1-methylcyclopropyl)methyl)piperidine-1-carbonyl)phenyl)benzo[d]thiazole-4-sulfonamide]	< 100 nM	< 100 nM	< 100 nM
O=C(c1ccc(NS(=O)(=O)c2ccc(F)c3cccnc23)cc1)N1CCC(O)(Cc2ccccc2F)CC1 [Compound 158, 5-fluoro-N-(4-(4-(2-fluorobenzyl)-4-hydroxypiperidine-1-carbonyl)phenyl)quinoline-8-sulfonamide]	< 100 nM	< 100 nM	< 100 nM
C=C(C)CC1(O)CCN(C(=O)c2ccc(NS(=O)(=O)c3cccc4scnc34)cc2)CC1 [Compound 181, N-(4-(4-hydroxy-4-(2-methylallyl)piperidine-1-carbonyl)phenyl)benzo[d]thiazole-4-sulfonamide]	101 to 1000 nM	< 100 nM	< 100 nM
O=C(c1ccc(NS(=O)(=O)c2cccc3nccnc23)cc1)N1CCC(O)(CC2CC2)CC1 [Compound 188, N-(4-(4-(cyclopropylmethyl)-4-hydroxypiperidine-1-carbonyl)phenyl)quinoxaline-5-sulfonamide]	101 to 1000 nM	< 100 nM	< 100 nM
O=C(c1ccc(NS(=O)(=O)c2cccc3scnc23)cc1)N1CCC(O)(CC2CC2)CC1 [Compound 198, N-(4-(4-(cyclopropylmethyl)-4-hydroxypiperidine-1-carbonyl)phenyl)benzo[d]thiazole-4-sulfonamide]	101 to 1000 nM	< 100 nM	< 100 nM
O=C(c1ccc(NS(=O)(=O)c2cccc3cccnc23)cc1)N1CCC(O)(/C=C/C(F)F)CC1 [Compound 200]	101 to 1000 nM	101 to 1000 nM	< 100 nM
O=C(c1ccc(NS(=O)(=O)c2ccc(F)c3cccnc23)cc1)N1CCC(O)(CC2CCC2)CC1 [Compound 201, N-(4-(4-(cyclobutylmethyl)-4-hydroxypiperidine-1-carbonyl)phenyl)-5-fluoroquinoline-8-sulfonamide]	101 to 1000 nM	< 100 nM	< 100 nM
CC(C)CC1(O)CCN(C(=O)c2ccc(NS(=O)(=O)c3cc(F)cc4scnc34)cc2)CC1 [Compound 202, 6-fluoro-N-(4-(4-hydroxy-4-isobutylpiperidine-1-carbonyl)phenyl)benzo[d]thiazole-4-sulfonamide]	101 to 1000 nM	< 100 nM	< 100 nM
O=C(c1ccc(NS(=O)(=O)c2ccc(F)c3cccnc23)cc1)N1CCC(O)(Cc2ccccc2C(F)(F)F)CC1 [Compound 208, 5-fluoro-N-(4-(4-hydroxy-4-(2-(trifluoromethyl)benzyl)piperidine-1-carbonyl)phenyl)quinoline-8-sulfonamide]	101 to 1000 nM	< 100 nM	< 100 nM
CC(C)CC1(CO)CCN(C(=O)c2ccc(NS(=O)(=O)c3cccc4scnc34)cc2)CC1 [Compound 216, N-(4-(4-(hydroxymethyl)-4-isobutylpiperidine-1-carbonyl)phenyl)benzo[d]thiazole-4-sulfonamide]	101 to 1000 nM	< 100 nM	< 100 nM
CC(C)CC1(CO)CCN(C(=O)c2ccc(NS(=O)(=O)c3cccc4nccnc34)cc2)CC1 [Compound 219, N-(4-(4-(hydroxymethyl)-4-isobutylpiperidine-1-carbonyl)phenyl)quinoxaline-5-sulfonamide]	101 to 1000 nM	< 100 nM	< 100 nM
O=C(c1ccc(NS(=O)(=O)c2cccc3nccnc23)cc1)N1CCC(O)(CCC(F)(F)F)CC1 [Compound 221, N-(4-(4-hydroxy-4-(3,3,3-trifluoropropyl)piperidine-1-carbonyl)phenyl)quinoxaline-5-sulfonamide]	101 to 1000 nM	< 100 nM	< 100 nM
O=C(c1ccc(NS(=O)(=O)c2ccc(F)c3cccnc23)cc1)N1CCC(O)(c2cccc(F)c2F)CC1 [Compound 227, N-(4-(4-(2,3-difluorophenyl)-4-hydroxypiperidine-1-carbonyl)phenyl)-5-fluoroquinoline-8-sulfonamide]	101 to 1000 nM	101 to 1000 nM	101 to 1000 nM
O=C(c1ccc(NS(=O)(=O)c2cccc3nccnc23)cc1)N1CCC(O)(CCC(F)F)CC1 [Compound 230, N-(4-(4-(3,3-difluoropropyl)-4-hydroxypiperidine-1-carbonyl)phenyl)quinoxaline-5-sulfonamide]	101 to 1000 nM	101 to 1000 nM	101 to 1000 nM
O=C(c1ccc(NS(=O)(=O)c2ccc(F)c3scnc23)cc1)N1CCC(O)(c2ccccc2Cl)CC1 [Compound 231]	1010 to 10000 nM	101 to 1000 nM	101 to 1000 nM
O=C(c1ccc(NS(=O)(=O)c2cccc(Cl)c2)cc1)N1CCC(O)(Cc2ccccc2)CC1 [Compound 281]		101 to 1000 nM	101 to 1000 nM

SMILES	AC50 (PKR R510Q)	AC50 (PKR R532W)	AC50 (PKR WT)
O=C(c1ccc(NS(=O)(=O)c2cccc(C(F)(F)F)c2)cc1)N1CCC(O)(Cc2ccccc2)CC1 [Compound 287]		1010 to 10000 nM	101 to 1000 nM
O=C(c1ccc(NS(=O)(=O)c2ccc3c(c2)OCO3)cc1)N1CCC(O)(Cc2ccccc2)CC1 [Compound 288]		1010 to 10000 nM	101 to 1000 nM
O=C(c1ccc(NS(=O)(=O)c2ccc(Cl)cc2)cc1)N1CCC(O)(Cc2ccccc2)CC1 [Compound 299]			1010 to 10000 nM
CN(C)CC1(O)CCN(C(=O)c2ccc(NS(=O)(=O)c3cccc4cccnc34)cc2)CC1 [Compound 301]		1010 to 10000 nM	1010 to 10000 nM
O=C(c1ccc(NS(=O)(=O)c2cccc3nonc23)cc1)N1CCC(O)(Cc2ccccc2)CC1 [Compound 310]		1010 to 10000 nM	1010 to 10000 nM
O=C(c1ccc(NS(=O)(=O)c2cccnc2)cc1)N1CCC(O)(Cc2ccccc2)CC1 [Compound 315]		> 10000 nM	1010 to 10000 nM
N#Cc1cccc(S(=O)(=O)Nc2ccc(C(=O)N3CCC(O)(Cc4ccccc4)CC3)cc2)c1 [Compound 317]			> 10000 nM
O=C(c1ccc(NS(=O)(=O)c2cccc3cnccc23)cc1)N1CCC(O)(c2ccccc2)CC1 [Compound 319]		> 10000 nM	> 10000 nM
O=C(c1ccc(NS(=O)(=O)c2ccc(C(F)(F)F)cc2)cc1)N1CCC(O)(Cc2ccccc2)CC1 [Compound 321]		> 10000 nM	> 10000 nM
O=C(c1ncc(NS(=O)(=O)c2cccc3cccnc23)cn1)N1CCC(O)(c2ccccc2)CC1 [Compound 323]			> 10000 nM
O=C(c1ccc(NS(=O)(=O)c2cccc3cccnc23)cc1)N1CCC(O)(CN2CCCC2)CC1 [Compound 327]		1010 to 10000 nM	
CCOC(=O)C1(Cc2ccccc2)CCN(C(=O)c2ccc(NS(=O)(=O)c3cccc4cccnc34)cc2)CC1 [Compound 330]	1010 to 10000 nM	101 to 1000 nM	
CC(C)CC1(O)CCN(C(=O)c2ccc(NS(=O)(=O)c3cnc(O)c4cccnc34)cc2)CC1 [Compound 416]		> 10000 nM	1010 to 10000 nM
CC(C)CC1(O)CCN(C(=O)c2ccc(NS(=O)(=O)c3cccc4snnc34)cc2)CC1 [Compound 419]		> 10000 nM	> 10000 nM
CC(F)(F)CCC1(O)CCN(C(=O)c2ccc(NS(=O)(=O)c3cccc4scnc34)cc2)CC1 [Compound 440]	101 to 1000 nM	101 to 1000 nM	
CC(C)CC1(O)CCN(C(=O)c2ccc(NS(=O)(=O)c3cccc4cncnc34)cc2)CC1 [Compound 441]	1010 to 10000 nM	101 to 1000 nM	
